{"source": "the supplement of paper PMC10307832", "experiment_in_all_cases": "relative viability (nuclei count vs DMSO), 5 days (fraction); higher = more cells survive", "key": {"Adavosertib + Dasatinib": {"compound": "C=CCn1c(=O)c2cnc(Nc3ccc(N4CCN(C)CC4)cc3)nc2n1-c1cccc(C(C)(C)O)n1 [Adavosertib] + Cc1nc(Nc2ncc(C(=O)Nc3c(C)cccc3Cl)s2)cc(N2CCN(CCO)CC2)n1 [Dasatinib] (partner 0.075 µM)", "in_short": "(§1)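 Relative viability equals treated-well nuclei counts divided by vehicle-well nuclei counts. Counts came from 4× images of lung cancer cell lines grown in 1536-well plates for 5 days after pin-tool dosing on the day after seeding. Dosing used one drug alone or a fixed anchor-drug dose plus five library-drug doses (not always all listed) in √10 steps, and values are medians of duplicate plates.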"}, "Nelarabine + Luminespib": {"compound": "COc1nc(N)nc2c1ncn2[C@@H]1O[C@H](CO)[C@@H](O)[C@@H]1O [Nelarabine] + CCNC(=O)c1noc(-c2cc(C(C)C)c(O)cc2O)c1-c1ccc(CN2CCOCC2)cc1 [Luminespib] (partner 0.01 µM)", "in_short": "as §1"}, "Nelarabine + Alpelisib": {"compound": "COc1nc(N)nc2c1ncn2[C@@H]1O[C@H](CO)[C@@H](O)[C@@H]1O [Nelarabine] + Cc1nc(NC(=O)N2CCC[C@H]2C(N)=O)sc1-c1ccnc(C(C)(C)C(F)(F)F)c1 [Alpelisib] (partner 2 µM)", "in_short": "as §1"}, "Nelarabine + Phenformin": {"compound": "COc1nc(N)nc2c1ncn2[C@@H]1O[C@H](CO)[C@@H](O)[C@@H]1O [Nelarabine] + N=C(N)NC(=N)NCCc1ccccc1 [Phenformin] (partner 250 µM)", "in_short": "as §1"}}, "data": [{"cell line": "EMC-BAC-2", "values": [{"measurement": "relative viability", "setting": "Adavosertib + Dasatinib; first compound 0.01 µM", "value": 0.333}, {"measurement": "relative viability", "setting": "Adavosertib + Dasatinib; first compound 0.03162 µM", "value": 0.339}, {"measurement": "relative viability", "setting": "Adavosertib + Dasatinib; first compound 0.1 µM", "value": 0.324}, {"measurement": "relative viability", "setting": "Adavosertib + Dasatinib; first compound 0.3162 µM", "value": 0.261}, {"measurement": "relative viability", "setting": "Nelarabine + Luminespib; first compound 0.01 µM", "value": 1.41}, {"measurement": "relative viability", "setting": "Nelarabine + Luminespib; first compound 0.03162 µM", "value": 1.16}, {"measurement": "relative viability", "setting": "Nelarabine + Luminespib; first compound 0.1 µM", "value": 1.11}, {"measurement": "relative viability", "setting": "Nelarabine + Luminespib; first compound 0.3162 µM", "value": 1.22}, {"measurement": "relative viability", "setting": "Nelarabine + Luminespib; first compound 1 µM", "value": 1.28}, {"measurement": "relative viability", "setting": "Nelarabine + Alpelisib; first compound 0.01 µM", "value": 0.794}, {"measurement": "relative viability", "setting": "Nelarabine + Alpelisib; first compound 0.03162 µM", "value": 0.585}, {"measurement": "relative viability", "setting": "Nelarabine + Alpelisib; first compound 0.1 µM", "value": 0.73}, {"measurement": "relative viability", "setting": "Nelarabine + Alpelisib; first compound 0.3162 µM", "value": 0.799}, {"measurement": "relative viability", "setting": "Nelarabine + Alpelisib; first compound 1 µM", "value": 0.815}, {"measurement": "relative viability", "setting": "Nelarabine + Phenformin; first compound 0.01 µM", "value": 0.587}, {"measurement": "relative viability", "setting": "Nelarabine + Phenformin; first compound 0.03162 µM", "value": 0.463}, {"measurement": "relative viability", "setting": "Nelarabine + Phenformin; first compound 0.1 µM", "value": 0.493}, {"measurement": "relative viability", "setting": "Nelarabine + Phenformin; first compound 0.3162 µM", "value": 0.517}, {"measurement": "relative viability", "setting": "Nelarabine + Phenformin; first compound 1 µM", "value": 0.539}]}]}
